Key:
[1] = biological target: T1, WRN [UniPro: Q14191 (WRN_HUMAN), N500-C946] (Homo sapiens (Human), UniProt Q14191); experiment: WRN ATPase assay (ADP-Glo); format: biochemical; conditions: WRN enzymatic activity assay
[2] = biological target: T1, WRN [UniPro: Q14191 (WRN_HUMAN), N500-C946]; experiment: WRN unwinding assay (FORKF DNA, fluorescence); format: biochemical; conditions: Table 14

T1 sequence (Q14191 500-946): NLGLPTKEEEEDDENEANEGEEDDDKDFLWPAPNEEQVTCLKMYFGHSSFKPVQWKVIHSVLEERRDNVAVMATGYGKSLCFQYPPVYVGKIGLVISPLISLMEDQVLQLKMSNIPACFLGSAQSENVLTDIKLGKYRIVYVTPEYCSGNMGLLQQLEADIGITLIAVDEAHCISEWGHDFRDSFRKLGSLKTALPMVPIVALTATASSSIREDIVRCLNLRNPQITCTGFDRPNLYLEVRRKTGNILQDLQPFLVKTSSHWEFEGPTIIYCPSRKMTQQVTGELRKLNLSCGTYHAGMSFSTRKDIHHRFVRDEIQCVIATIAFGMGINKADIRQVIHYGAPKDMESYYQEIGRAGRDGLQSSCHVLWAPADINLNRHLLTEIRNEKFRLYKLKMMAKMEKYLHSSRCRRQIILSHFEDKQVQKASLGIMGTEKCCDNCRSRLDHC

Row | Structure (SMILES) | IC50 [1] | IC50 [2]
1 | CCc1c(N2CCN(C(=O)c3cnc4c(ccn4C)c3O)CC2)c(=O)n2nc(C3=CCOCC3)nc2n1CC(=O)Nc1ccc(C(F)(F)F)cc1Cl [Example 77, N-(2-Chloro-4-(trifluoromethyl)phenyl)-2-(2-(3,6-dihydro-2H-pyran-4-yl)-5-ethyl-6-(4-(4-hydroxy-1-methyl-1H-pyrrolo[2,3-b]pyridine-5-carbonyl)piperazin-1-yl)-7-oxo-[1,2,4]triazolo[1,5-a]pyrimidin-4(7H)-yl)acetamide] | < 100 nM | < 100 nM
2 | CCc1c(N2CCN(C(=O)c3cnc(C(F)(F)F)[nH]3)CC2)c(=O)n2nc(C3=CCOCC3)nc2n1CC(=O)Nc1ccc(Cl)cc1C(F)(F)F [Example 70, N-(4-Chloro-2-(trifluoromethyl)phenyl)-2-(2-(3,6-dihydro-2H-pyran-4-yl)-5-ethyl-7-oxo-6-(4-(2-(trifluoromethyl)-1H-imidazole-5-carbonyl)piperazin-1-yl)-[1,2,4]triazolo[1,5-a]pyrimidin-4(7H)-yl)acetamide] | 100 to 1000 nM | 100 to 1000 nM
3 | CCc1c(N2CCN(C(=O)CNC(=O)c3nccs3)CC2)c(=O)n2nc(C3=CCOCC3)nc2n1CC(=O)Nc1ccc(C(F)(F)F)cc1Cl [Example 100, N-(2-(4-(4-(2-((2-Chloro-4-(trifluoromethyl)phenyl)amino)-2-oxoethyl)-2-(3,6-dihydro-2H-pyran-4-yl)-5-ethyl-7-oxo-4,7-dihydro-[1,2,4]triazolo[1,5-a]pyrimidin-6-yl)piperazin-1-yl)-2-oxoethyl)thiazole-2-carboxamide] | < 100 nM | < 100 nM
4 | CCc1c(N2CCN(C(=O)c3cccc(C)c3O)CC2)c(=O)n2nc(C3=CCOCC3)nc2n1CC(=O)Nc1ccc(C(F)(F)F)cc1Cl [Example 60, N-(2-Chloro-4-(trifluoromethyl)phenyl)-2-(2-(3,6-dihydro-2H-pyran-4-yl)-5-ethyl-6-(4-(2-hydroxy-3-methylbenzoyl)piperazin-1-yl)-7-oxo-[1,2,4]triazolo[1,5-a]pyrimidin-4(7H)-yl)acetamide] | 100 to 1000 nM | 100 to 1000 nM
5 | CCc1c(N2CCN(C(=O)CNC(=O)c3ccccc3F)CC2)c(=O)n2nc(C3=CCOCC3)nc2n1CC(=O)Nc1cnc(C(F)(F)F)s1 [Example 157, N-(2-(4-(2-(3,6-Dihydro-2H-pyran-4-yl)-5-ethyl-7-oxo-4-(2-oxo-2-((2-(trifluoromethyl)thiazol-5-yl)amino)ethyl)-4,7-dihydro-[1,2,4]triazolo[1,5-a]pyrimidin-6-yl)piperazin-1-yl)-2-oxoethyl)-2-fluorobenzamide] | < 100 nM | < 100 nM
6 | CCc1c(N2CCN(C(=O)c3ncnc4c(Cl)c[nH]c34)CC2)c(=O)n2nc(C3=CCOCC3)nc2n1CC(=O)Nc1ccc(C(F)(F)F)cc1Cl [Example 44, N-(2-Chloro-4-(trifluoromethyl)phenyl)-2-(6-(4-(7-chloro-5H-pyrrolo[3,2-d]pyrimidine-4-carbonyl)piperazin-1-yl)-2-(3,6-dihydro-2H-pyran-4-yl)-5-ethyl-7-oxo-[1,2,4]triazolo[1,5-a]pyrimidin-4(7H)-yl)acetamide] | 100 to 1000 nM | 100 to 1000 nM
7 | CCc1c(N2CCN(C(=O)CNC(=O)c3ncco3)CC2)c(=O)n2nc(C3=CCOCC3)nc2n1CC(=O)Nc1ccc(C(F)(F)F)cc1Cl [Example 123, N-(2-(4-(4-(2-((2-Chloro-4-(trifluoromethyl)phenyl)amino)-2-oxoethyl)-2-(3,6-dihydro-2H-pyran-4-yl)-5-ethyl-7-oxo-4,7-dihydro-[1,2,4]triazolo[1,5-a]pyrimidin-6-yl)piperazin-1-yl)-2-oxoethyl)oxazole-2-carboxamide] | < 100 nM | < 100 nM
8 | CCc1c(N2CCN(C(=O)CNS(C)(=O)=O)CC2)c(=O)n2nc(C3=CCOCC3)nc2n1CC(=O)Nc1ccc(C(F)(F)F)cc1Cl [Example 170, N-(2-Chloro-4-(trifluoromethyl)phenyl)-2-(2-(3,6-dihydro-2H-pyran-4-yl)-5-ethyl-6-(4-((methylsulfonyl)glycyl)piperazin-1-yl)-7-oxo-[1,2,4]triazolo[1,5-a]pyrimidin-4(7H)-yl)acetamide] | 100 to 1000 nM | 100 to 1000 nM
9 | CCc1c(N2CCN(C(=O)CNC(=O)c3cnn(C)c3)CC2)c(=O)n2nc(C3=CCOCC3)nc2n1CC(=O)Nc1ccc(C(F)(F)F)cc1Cl [Example 103, N-(2-(4-(4-(2-((2-Chloro-4-(trifluoromethyl)phenyl)amino)-2-oxoethyl)-2-(3,6-dihydro-2H-pyran-4-yl)-5-ethyl-7-oxo-4,7-dihydro-[1,2,4]triazolo[1,5-a]pyrimidin-6-yl)piperazin-1-yl)-2-oxoethyl)-1-methyl-1H-pyrazole-4-carboxamide] | < 100 nM | < 100 nM
10 | CCc1c(N2CCN(C(=O)c3cnc4ncsc4c3O)CC2)c(=O)n2nc(C3=CCOCC3)nc2n1CC(=O)Nc1ccc(C(F)(F)F)cc1Cl [Example 81, N-(2-Chloro-4-(trifluoromethyl)phenyl)-2-(2-(3,6-dihydro-2H-pyran-4-yl)-5-ethyl-6-(4-(7-hydroxythiazolo[4,5-b]pyridine-6-carbonyl)piperazin-1-yl)-7-oxo-[1,2,4]triazolo[1,5-a]pyrimidin-4(7H)-yl)acetamide] | < 100 nM | < 100 nM
11 | CCc1c(N2CCN(C(=O)c3ncnc4[nH]ccc34)CC2)c(=O)n2nc(C3=CCOCC3)nc2n1CC(=O)Nc1ccc(Cl)cc1C(F)(F)F [Example 69, 2-(6-(4-(7H-Pyrrolo[2,3-d]pyrimidine-4-carbonyl)piperazin-1-yl)-2-(3,6-dihydro-2H-pyran-4-yl)-5-ethyl-7-oxo-[1,2,4]triazolo[1,5-a]pyrimidin-4(7H)-yl)-N-(4-chloro-2-(trifluoromethyl)phenyl)acetamide] | 100 to 1000 nM | < 100 nM

Next, values leading:

Row | IC50 [1] | IC50 [2] | Structure (SMILES)
12 | < 100 nM | < 100 nM | CCc1c(N2CCN(C(=O)CNC(=O)c3ccc(F)c(NC)c3)CC2)c(=O)n2nc(N3CCOCC3)nc2n1CC(=O)Nc1ccc(C(F)(F)F)cc1Cl [Example 251, N-(2-(4-(4-(2-((2-Chloro-4-(trifluoromethyl)phenyl)amino)-2-oxoethyl)-5-ethyl-2-morpholino-7-oxo-4,7-dihydro-[1,2,4]triazolo[1,5-a]pyrimidin-6-yl)piperazin-1-yl)-2-oxoethyl)-4-fluoro-3-(methylamino)benzamide]
13 | < 100 nM | < 100 nM | CCc1c(N2CCN(C(=O)c3nnc(C(F)(F)F)[nH]3)CC2)c(=O)n2nc(C3=CCOCC3)nc2n1CC(=O)Nc1ccc(C(F)(F)F)cc1F [Example 311, 2-(2-(3,6-Dihydro-2H-pyran-4-yl)-5-ethyl-7-oxo-6-(4-(5-(trifluoromethyl)-4H-1,2,4-triazole-3-carbonyl)piperazin-1-yl)-[1,2,4]triazolo[1,5-a]pyrimidin-4(7H)-yl)-N-(2-fluoro-4-(trifluoromethyl)phenyl)acetamide]
14 | < 100 nM | < 100 nM | CCc1c(N2CCN(C(=O)CNC(=O)Nc3ccccc3C#N)CC2)c(=O)n2nc(C3=CCOCC3)nc2n1CC(=O)Nc1ccc(C(F)(F)F)cc1Cl [Example 187, N-(2-Chloro-4-(trifluoromethyl)phenyl)-2-(6-(4-(((2-cyanophenyl)carbamoyl)glycyl)piperazin-1-yl)-2-(3,6-dihydro-2H-pyran-4-yl)-5-ethyl-7-oxo-[1,2,4]triazolo[1,5-a]pyrimidin-4(7H)-yl)acetamide]
15 | < 100 nM | < 100 nM | CCc1c(N2CCN(C(=O)CNC(=O)c3c(F)cccc3Cl)CC2)c(=O)n2nc(C3=CCOCC3)nc2n1CC(=O)Nc1ccc(C(F)(F)F)cc1Cl [Example 319, 2-Chloro-N-(2-(4-(4-(2-((2-chloro-4-(trifluoromethyl)phenyl)amino)-2-oxoethyl)-2-(3,6-dihydro-2H-pyran-4-yl)-5-ethyl-7-oxo-4,7-dihydro-[1,2,4]triazolo[1,5-a]pyrimidin-6-yl)piperazin-1-yl)-2-oxoethyl)-6-fluorobenzamide]
16 | < 100 nM | < 100 nM | CCc1c(N2CCN(C(=O)CNC(=O)c3ccc(F)c(N(C)C)c3)CC2)c(=O)n2nc(C3=CCOCC3)nc2n1CC(=O)Nc1ccc(C(F)(F)F)cc1Cl [Example 286, N-(2-(4-(4-(2-((2-Chloro-4-(trifluoromethyl)phenyl)amino)-2-oxoethyl)-2-(3,6-dihydro-2H-pyran-4-yl)-5-ethyl-7-oxo-4,7-dihydro-[1,2,4]triazolo[1,5-a]pyrimidin-6-yl)piperazin-1-yl)-2-oxoethyl)-3-(dimethylamino)-4-fluorobenzamide]
17 | < 100 nM | < 100 nM | CCc1c(N2CCN(C(=O)CNC(=O)c3ccccc3O)CC2)c(=O)n2nc(C3=CCOCC3)nc2n1CC(=O)Nc1ccc(C(F)(F)F)cc1Cl [Example 269, N-(2-(4-(4-(2-((2-Chloro-4-(trifluoromethyl)phenyl)amino)-2-oxoethyl)-2-(3,6-dihydro-2H-pyran-4-yl)-5-ethyl-7-oxo-4,7-dihydro-[1,2,4]triazolo[1,5-a]pyrimidin-6-yl)piperazin-1-yl)-2-oxoethyl)-2-hydroxybenzamide]
18 | < 100 nM | < 100 nM | CCc1c(N2CCN(C(=O)CNC(=O)c3cccc(O)c3)CC2)c(=O)n2nc(C3=CCOCC3)nc2n1CC(=O)Nc1ccc(C(F)(F)F)cc1Cl [Example 270, N-(2-(4-(4-(2-((2-Chloro-4-(trifluoromethyl)phenyl)amino)-2-oxoethyl)-2-(3,6-dihydro-2H-pyran-4-yl)-5-ethyl-7-oxo-4,7-dihydro-[1,2,4]triazolo[1,5-a]pyrimidin-6-yl)piperazin-1-yl)-2-oxoethyl)-3-hydroxybenzamide]
19 | 100 to 1000 nM | < 100 nM | CCc1c(N2CCN(C(=O)CNC(=O)c3[nH]c(=O)ccc3F)CC2)c(=O)n2nc(C3=CCOCC3)nc2n1CC(=O)Nc1ccc(C(F)(F)F)cc1Cl [Example 365, N-(2-(4-(4-(2-((2-Chloro-4-(trifluoromethyl)phenyl)amino)-2-oxoethyl)-2-(3,6-dihydro-2H-pyran-4-yl)-5-ethyl-7-oxo-4,7-dihydro-[1,2,4]triazolo[1,5-a]pyrimidin-6-yl)piperazin-1-yl)-2-oxoethyl)-3-fluoro-6-oxo-1,6-dihydropyridine-2-carboxamide]

From patent US20260015358A1, “BICYCLIC DERIVATIVES, COMPOSITIONS AND USES THEREOF” (Danatlas Pharmaceuticals Co., Ltd., priority 2023, published 2026)
